{"source": "paper PMC8896928", "about": "“Preparation, Characterization, and Preliminary Imaging Study of [^188Re]Re-Ibandronate as a Novel Theranostic Radiopharmaceutical for Bone Metastasis” (Contrast Media & Molecular Imaging, 2022)", "key": {"[1]": {"assay": "Biodistribution in normal mice", "type": "in vivo, Kunming mice", "experimental": "Twenty Kunming mice (originated from Swiss albino mice and introduced into Kunming, China.) were randomly divided into five groups (equal number of males and females). Each group was injected with 3.7 MBq [^188Re]Re-IBA. […] The blood and important tissue and organ samples were collected to measure the radioactivity count by γ counter. Following the time attenuation correction, the percentage injection dose rate per gram of tissue (%ID/g) was calculated at each time point. The result is expressed as mean ± standard deviation ( χ¯ ± s). The in vivo distribution of [^188Re]ReO4^− was studied using the aforementioned method."}, "patients": {"tested_on": "patients", "settings": "cited from earlier work; for Nephrotoxicity: patients, renal safety"}, "[2]": {"settings": "0.9% NaCl, 24 h; cited from earlier work"}, "[3]": {"settings": "Swiss mice, cited from earlier work"}, "[4]": {"settings": "Kunming mice, 24 h, cited from earlier work"}, "[5]": {"settings": "patients with bone tumors, P < 0.05"}}, "note": "Where two headings read alike, the source gives them in different places."}
{"compound": "[O]=[188Re](=[O])(=[O])[O-]", "note": "[[^188Re]ReO4^−, reference compound]", "values": [{"measurement": "%ID/g Blood", "setting": "[1]; 1 h", "value": "4.648 ± 1.631", "unit": "%ID/g"}, {"measurement": "%ID/g Brain", "setting": "[1]; 1 h", "value": "0.207 ± 0.044", "unit": "%ID/g"}, {"measurement": "%ID/g Femur", "setting": "[1]; 1 h", "value": "1.670 ± 0.345", "unit": "%ID/g"}, {"measurement": "%ID/g Gonad", "setting": "[1]; 1 h", "value": "1.096 ± 0.007", "unit": "%ID/g"}, {"measurement": "%ID/g Heart", "setting": "[1]; 1 h", "value": "1.422 ± 0.339", "unit": "%ID/g"}, {"measurement": "%ID/g Kidney", "setting": "[1]; 1 h", "value": "2.923 ± 0.658", "unit": "%ID/g"}, {"measurement": "%ID/g Liver", "setting": "[1]; 1 h", "value": "2.480 ± 0.556", "unit": "%ID/g"}, {"measurement": "%ID/g Lung", "setting": "[1]; 1 h", "value": "4.458 ± 1.379", "unit": "%ID/g"}, {"measurement": "%ID/g Muscle", "setting": "[1]; 1 h", "value": "0.775 ± 0.074", "unit": "%ID/g"}, {"measurement": "%ID/g Small intestine", "setting": "[1]; 1 h", "value": "1.671 ± 0.448", "unit": "%ID/g"}, {"measurement": "%ID/g Spleen", "setting": "[1]; 1 h", "value": "2.341 ± 0.973", "unit": "%ID/g"}, {"measurement": "%ID/g Stomach", "setting": "[1]; 1 h", "value": "22.747 ± 5.67", "unit": "%ID/g"}, {"measurement": "%ID/g Thyroid gland", "setting": "[1]; 1 h", "value": "20.247 ± 2.489", "unit": "%ID/g"}, {"measurement": "Femur/heart radioactivity ratio", "setting": "[1]; 1 h", "value": 1.195}, {"measurement": "Femur/liver radioactivity ratio", "setting": "[1]; 1 h", "value": 0.685}, {"measurement": "Femur/muscle radioactivity ratio", "setting": "[1]; 1 h", "value": 2.193}, {"measurement": "%ID/g Blood", "setting": "[1]; 3 h", "value": "1.578 ± 0.419", "unit": "%ID/g"}, {"measurement": "%ID/g Brain", "setting": "[1]; 3 h", "value": "0.070 ± 0.024", "unit": "%ID/g"}, {"measurement": "%ID/g Femur", "setting": "[1]; 3 h", "value": "0.431 ± 0.038", "unit": "%ID/g"}, {"measurement": "%ID/g Gonad", "setting": "[1]; 3 h", "value": "0.404 ± 0.130", "unit": "%ID/g"}, {"measurement": "%ID/g Heart", "setting": "[1]; 3 h", "value": "0.401 ± 0.050", "unit": "%ID/g"}, {"measurement": "%ID/g Kidney", "setting": "[1]; 3 h", "value": "0.683 ± 0.118", "unit": "%ID/g"}, {"measurement": "%ID/g Liver", "setting": "[1]; 3 h", "value": "0.530 ± 0.038", "unit": "%ID/g"}, {"measurement": "%ID/g Lung", "setting": "[1]; 3 h", "value": "1.026 ± 0.312", "unit": "%ID/g"}, {"measurement": "%ID/g Muscle", "setting": "[1]; 3 h", "value": "0.182 ± 0.023", "unit": "%ID/g"}, {"measurement": "%ID/g Small intestine", "setting": "[1]; 3 h", "value": "0.558 ± 0.207", "unit": "%ID/g"}, {"measurement": "%ID/g Spleen", "setting": "[1]; 3 h", "value": "0.490 ± 0.090", "unit": "%ID/g"}, {"measurement": "%ID/g Stomach", "setting": "[1]; 3 h", "value": "8.578 ± 3.928", "unit": "%ID/g"}, {"measurement": "%ID/g Thyroid gland", "setting": "[1]; 3 h", "value": "10.167 ± 1.618", "unit": "%ID/g"}, {"measurement": "Femur/heart radioactivity ratio", "setting": "[1]; 3 h", "value": 1.075}, {"measurement": "Femur/liver radioactivity ratio", "setting": "[1]; 3 h", "value": 0.813}, {"measurement": "Femur/muscle radioactivity ratio", "setting": "[1]; 3 h", "value": 2.372}, {"measurement": "%ID/g Blood", "setting": "[1]; 6 h", "value": "0.533 ± 0.254", "unit": "%ID/g"}, {"measurement": "%ID/g Brain", "setting": "[1]; 6 h", "value": "0.044 ± 0.019", "unit": "%ID/g"}, {"measurement": "%ID/g Femur", "setting": "[1]; 6 h", "value": "0.213 ± 0.102", "unit": "%ID/g"}, {"measurement": "%ID/g Gonad", "setting": "[1]; 6 h", "value": "0.207 ± 0.065", "unit": "%ID/g"}, {"measurement": "%ID/g Heart", "setting": "[1]; 6 h", "value": "0.176 ± 0.074", "unit": "%ID/g"}, {"measurement": "%ID/g Kidney", "setting": "[1]; 6 h", "value": "0.338 ± 0.191", "unit": "%ID/g"}, {"measurement": "%ID/g Liver", "setting": "[1]; 6 h", "value": "0.258 ± 0.086", "unit": "%ID/g"}, {"measurement": "%ID/g Lung", "setting": "[1]; 6 h", "value": "0.487 ± 0.132", "unit": "%ID/g"}, {"measurement": "%ID/g Muscle", "setting": "[1]; 6 h", "value": "0.109 ± 0.065", "unit": "%ID/g"}, {"measurement": "%ID/g Small intestine", "setting": "[1]; 6 h", "value": "0.263 ± 0.050", "unit": "%ID/g"}, {"measurement": "%ID/g Spleen", "setting": "[1]; 6 h", "value": "0.270 ± 0.098", "unit": "%ID/g"}, {"measurement": "%ID/g Stomach", "setting": "[1]; 6 h", "value": "2.828 ± 1.287", "unit": "%ID/g"}, {"measurement": "%ID/g Thyroid gland", "setting": "[1]; 6 h", "value": "4.299 ± 1.015", "unit": "%ID/g"}, {"measurement": "Femur/heart radioactivity ratio", "setting": "[1]; 6 h", "value": 1.205}, {"measurement": "Femur/liver radioactivity ratio", "setting": "[1]; 6 h", "value": 0.823}, {"measurement": "Femur/muscle radioactivity ratio", "setting": "[1]; 6 h", "value": 1.950}, {"measurement": "%ID/g Blood", "setting": "[1]; 24 h", "value": "0.023 ± 0.009", "unit": "%ID/g"}, {"measurement": "%ID/g Brain", "setting": "[1]; 24 h", "value": "0.017 ± 0.004", "unit": "%ID/g"}, {"measurement": "%ID/g Femur", "setting": "[1]; 24 h", "value": "0.031 ± 0.003", "unit": "%ID/g"}, {"measurement": "%ID/g Gonad", "setting": "[1]; 24 h", "value": "0.021 ± 0.009", "unit": "%ID/g"}, {"measurement": "%ID/g Heart", "setting": "[1]; 24 h", "value": "0.017 ± 0.005", "unit": "%ID/g"}, {"measurement": "%ID/g Kidney", "setting": "[1]; 24 h", "value": "0.017 ± 0.003", "unit": "%ID/g"}, {"measurement": "%ID/g Liver", "setting": "[1]; 24 h", "value": "0.023 ± 0.010", "unit": "%ID/g"}, {"measurement": "%ID/g Lung", "setting": "[1]; 24 h", "value": "0.054 ± 0.017", "unit": "%ID/g"}, {"measurement": "%ID/g Muscle", "setting": "[1]; 24 h", "value": "0.021 ± 0.008", "unit": "%ID/g"}, {"measurement": "%ID/g Small intestine", "setting": "[1]; 24 h", "value": "0.023 ± 0.004", "unit": "%ID/g"}, {"measurement": "%ID/g Spleen", "setting": "[1]; 24 h", "value": "0.028 ± 0.007", "unit": "%ID/g"}, {"measurement": "%ID/g Stomach", "setting": "[1]; 24 h", "value": "0.053 ± 0.032", "unit": "%ID/g"}, {"measurement": "%ID/g Thyroid gland", "setting": "[1]; 24 h", "value": "0.051 ± 0.026", "unit": "%ID/g"}, {"measurement": "Femur/heart radioactivity ratio", "setting": "[1]; 24 h", "value": 1.853}, {"measurement": "Femur/liver radioactivity ratio", "setting": "[1]; 24 h", "value": 1.325}, {"measurement": "Femur/muscle radioactivity ratio", "setting": "[1]; 24 h", "value": 1.498}, {"measurement": "%ID/g Blood", "setting": "[1]; 48 h", "value": "0.007 ± 0.002", "unit": "%ID/g"}, {"measurement": "%ID/g Brain", "setting": "[1]; 48 h", "value": "0.013 ± 0.006", "unit": "%ID/g"}, {"measurement": "%ID/g Femur", "setting": "[1]; 48 h", "value": "0.011 ± 0.005", "unit": "%ID/g"}, {"measurement": "%ID/g Gonad", "setting": "[1]; 48 h", "value": "0.007 ± 0.001", "unit": "%ID/g"}, {"measurement": "%ID/g Heart", "setting": "[1]; 48 h", "value": "0.011 ± 0.004", "unit": "%ID/g"}, {"measurement": "%ID/g Kidney", "setting": "[1]; 48 h", "value": "0.017 ± 0.007", "unit": "%ID/g"}, {"measurement": "%ID/g Liver", "setting": "[1]; 48 h", "value": "0.018 ± 0.010", "unit": "%ID/g"}, {"measurement": "%ID/g Lung", "setting": "[1]; 48 h", "value": "0.036 ± 0.008", "unit": "%ID/g"}, {"measurement": "%ID/g Muscle", "setting": "[1]; 48 h", "value": "0.020 ± 0.005", "unit": "%ID/g"}, {"measurement": "%ID/g Small intestine", "setting": "[1]; 48 h", "value": "0.014 ± 0.005", "unit": "%ID/g"}, {"measurement": "%ID/g Spleen", "setting": "[1]; 48 h", "value": "0.022 ± 0.006", "unit": "%ID/g"}, {"measurement": "%ID/g Stomach", "setting": "[1]; 48 h", "value": "0.029 ± 0.012", "unit": "%ID/g"}, {"measurement": "%ID/g Thyroid gland", "setting": "[1]; 48 h", "value": "0.025 ± 0.009", "unit": "%ID/g"}, {"measurement": "Femur/heart radioactivity ratio", "setting": "[1]; 48 h", "value": 1.060}, {"measurement": "Femur/liver radioactivity ratio", "setting": "[1]; 48 h", "value": 0.638}, {"measurement": "Femur/muscle radioactivity ratio", "setting": "[1]; 48 h", "value": 0.585}]}
{"compound": "CCCCCN(C)CCC(O)(P(=O)(O)O)P(=O)(O)O", "note": "[ibandronic acid, Ibandronic acid]", "values": [{"measurement": "Renal function during follow-up", "setting": "patients; 44 patients, average follow-up of 18.5 months", "value": "no impairment of renal function"}, {"measurement": "Pain relief rate and improvement in the quality of life vs zoledronic acid group", "setting": "patients; [5]", "value": "higher"}, {"measurement": "Rate of adverse reactions vs zoledronic acid group", "setting": "patients; [5]", "value": "lower"}, {"measurement": "Nephrotoxicity", "setting": "patients", "value": "extremely low and equivalent to that of the placebo"}]}
{"compound": "O=P(O)(O)C(O)(Cn1ccnc1)P(=O)(O)O", "note": "[zoledronic acid]", "values": [{"measurement": "Nephrotoxicity", "setting": "patients", "value": "possible occurrence of nephrotoxicity"}]}
{"compound": "[^188Re]Re-bisphosphonate hydroxyethylidene diphosphonate [[^188Re]Re-HEDP]", "values": [{"measurement": "Stability (RCP)", "setting": "[2]", "value": 91.2, "unit": "%"}, {"measurement": "Bone uptake (maximum)", "setting": "[3]; 4 h", "value": "1.0 ± 0.1", "unit": "%ID/g"}, {"measurement": "Bone uptake", "setting": "[4]; ref 37", "value": "22.36 ± 4.11", "unit": "%ID/g"}, {"measurement": "Bone uptake", "setting": "[4]; ref 38", "value": "11.08 ± 4.25", "unit": "%ID/g"}]}
{"compound": "[^188Re]Re-pamidronate [[^188Re]Re-PMA]", "values": [{"measurement": "Bone uptake (lowest)", "setting": "[3]; 1 h", "value": "0.40 ± 0.05", "unit": "%ID/g"}, {"measurement": "Bone uptake (highest)", "setting": "[3]; 4 h", "value": "0.81 ± 0.25", "unit": "%ID/g"}]}
